Converted amounts (≈) assume the structure as drawn.
Key:
[1] = tested on: HL-60/VCR cells; experiment: Intracellular taxol accumulation in HL-60/VCR cells; type: cell-based, human; details: 4 hours
Protocol: The cells were suspended in cold PBS and counted, and centrifuged again. The cell pellets were suspended in 0.5 ml of 2% SDS solution and then sonicated for 5 minutes in a cup-horn sonicator (Heat Systems, Farmingdate, N.Y.). Resulting cell homogenate was extracted with 4 ml of methanol, vortexed for 1 minute and centrifuged for 20 minutes at 3000 rpm. The samples were read by using HPLC. The concentration of drug in […] was calculated using a standard calibration curve for drug spiked cells and were then treated similarly.

[2] = tested on: tubulin; details: cited from earlier work
[3] = tested on: HL-60/VCR cells; experiment: Cytotoxicity in multidrug resistant HL-60/VCR cells; type: cell-based; details: Homo sapiens, HL60/VCR, 72 hours, FIG. 5
Protocol: The HL-60 VCR cells were grown in media at 37° C. with 5% CO2.
After 72 hours of incubation, cells in each flask were counted by hemocytometer and viability was determined by trypan blue exclusion. Percent survival of treated cells was determined relative to untreated control. Cytotoxic activity was expressed as IC50 which was defined as the concentration of drug resulting 50% survival of the cells compared to control.

[4] = cited from earlier work
[5] = tested on: P388 leukemia; details: in vivo; cited from earlier work
[6] = tested on: Male CD2 F1 mice; experiment: Toxicity evaluation of free and liposomal taxol in normal mice; type: in vivo, mouse; details: 25 mg/kg i.v., repeated day 5 and 9
Protocol: Male CD2 F1 mice weighing 22-25 gm were used in this study. […] Taxol liposomes were prepared using cardiolipin, phosphatidyl choline, and cholesterol. […] The same doses were repeated on mice at day 5 and 9.

[7] = tested on: B16 melanoma; details: i.p. implanted; cited from earlier work
[8] = tested on: metastatic breast cancer; details: in vivo; cited from earlier work
[9] = cited from earlier work; remark: listed apart in the source
[10] = tested on: L1210 leukemia; details: in vivo; cited from earlier work
[11] = Stability studies of liposomal and free taxol; type: physicochemical; details: free taxol 0.6 mg/ml in saline
[12] = tested on: HL-60 cells; type: cell-based, human; details: 10 μg/ml, FIG. 4
Protocol: Briefly, exponentially growing cells were incubated in 100 mm petri dishes with drug containing medium at 37° C. […] The cell pellets were suspended in 0.5 ml of 2% SDS solution and then sonicated for 5 minutes in a cup-horn sonicator. The cell homogenate was extracted with 2 ml of methanol.

[13] = tested on: HL-60 promyelocytic leukemia cells; experiment: Growth inhibition (cytotoxicity) in HL-60 leukemia cells; type: cell-based; details: Homo sapiens; HL-60, 72 hours, 37° C., trypan blue; FIG. 3
Protocol: HL-60 promyelocytic leukemia cells were grown in tissue culture in RPM1-1640 medium supplemented with 10% fetal bovine serum. All cultures were maintained in plastic tissue culture flasks and kept in an incubator at 37° C. in humidified air containing 5% CO2.
For these experiments, 1×10^5 cells in exponential growth phase were plated into 25 cm^2 flasks. […] Cells were counted in a hemocytometer and viability was determined by trypan blue exclusion. The cell survival was compared to the control cells and IC50 (inhibitory concentration for 50% of the cells) values for each drug was determined.

[14] = tested on: cell replication; details: in vitro; cited from earlier work
[15] = tested on: human MX-1 mammary tumor xenograft; details: in vivo; cited from earlier work
[16] = tested on: lymphoma, ovarian and breast cancers; details: cited from earlier work
[17] = tested on: advanced ovarian tumors; details: women with advanced ovarian tumors; cited from earlier work

## CC(=O)O[C@H]1C(=O)[C@@]2(C)[C@H]([C@H](OC(=O)c3ccccc3)[C@]3(O)C[C@H](OC(=O)[C@H](O)[C@@H](NC(=O)c4ccccc4)c4ccccc4)C(C)=C1C3(C)C)[C@]1(OC(C)=O)CO[C@@H]1C[C@@H]2O (relative stereo) [Taxol, (2aR(2aα,4β,4aβ,6β,9α(αR*,βS*) ,11α, 12α,12aα,12bα))-β-(β-(benzoylamino)-α-hydroxybenzenepropanoic acid 6,12b-bis(acetyloxy)-12-(benzoyloxy)-2a,3,4,4a,5,6,9,10,11,12,12a,12b-dodecahydro-4,11-dihydroxy-4a, 8,13,13-tetramethyl-5-oxo-7,11-methano-14-cyclodeca(3,4)benz(1,2-6)oxet-9-yl ester]
[1]
  decrease in cellular uptake versus liposomal taxol: threefold decrease in cellular uptake
[2]
  effect on tubulin polymerization: markedly enhances all aspects of tubulin polymerization
[3]
  IC50: 2.43 µg/mL (≈ 2.85 µM)
[4]; antihistamine and corticosteroids, infusion six to twenty four hours
  toxicities despite pretreatment and prolonged infusion: serious toxicities which are often fatal
[4]; human, in vivo
  cardiac toxicity: treatment limiting
[5]
  antineoplastic activity against P388 leukemia: significant antineoplastic activity
[6]
  sclerosis of the vein: sclerosis of the vein
[6]; ten mice per group, FIG. 2
  mortality / toxicity by day 12: three mice in the free taxol group died because of toxicity
[7]
  antineoplastic activity against B16 melanoma: significant antineoplastic activity
[8]
  treatment of metastatic breast cancer: considerable promise
[9]; diluted in saline solution
  degradation time once diluted in saline: ≤ 24 h
  precipitation from dilution: the drug precipitates from dilution
[9]; water
  solubility in water: limited solubility in water
[10]
  antineoplastic activity against L1210 leukemia: significant antineoplastic activity
[11]
  degradation time in saline: ≤ 3 h
[12]; 2 and 4 hours, HL-60, relative to 1 hour
  cellular concentration of taxol at 2 and 4 hours: same taxol concentration
[12]; 1 hour, HL-60
  cellular concentration of taxol at 1 hour: 5.18 μg/10^7 cells
[13]
  IC50: 0.0025 µg/mL (≈ 0.00293 µM)
[14]
  inhibition of cell replication: potent inhibitor of cell replication in vitro
[15]
  antineoplastic activity against MX-1 xenograft: significant antineoplastic activity
[16]
  activity in clinical trials: sufficient activity
[17]
  tumor shrinkage, share of women: 30 to 40%

From US5424073A (Georgetown University, priority 1993, dated 1995)
